Reference: US8026243B2, “[4,5′]Bipyrimidinyl-6,4′-diamine derivatives as protein kinase inhibitors” (Novartis AG, priority 2006, dated 2011)

target: T1, Ba/F3-TEL-FGFR3 cells (Homo sapiens, UniProt P22607); assay: FGFR3 cellular assay: proliferation of transformed Ba/F3-TEL-FGFR3 cells (AlamarBlue); assay type: cell-based; details: 48 hours incubation, class symbols
T1 construct: fused on or other part: The N-terminal oligomerising part of TEL (ETV6) is fused before the intracellular kinase part of FGFR3; P41212 (Transcription factor ETV6)
T1 sequence (P22607 whole entry, change not shown, the tested form may be a part): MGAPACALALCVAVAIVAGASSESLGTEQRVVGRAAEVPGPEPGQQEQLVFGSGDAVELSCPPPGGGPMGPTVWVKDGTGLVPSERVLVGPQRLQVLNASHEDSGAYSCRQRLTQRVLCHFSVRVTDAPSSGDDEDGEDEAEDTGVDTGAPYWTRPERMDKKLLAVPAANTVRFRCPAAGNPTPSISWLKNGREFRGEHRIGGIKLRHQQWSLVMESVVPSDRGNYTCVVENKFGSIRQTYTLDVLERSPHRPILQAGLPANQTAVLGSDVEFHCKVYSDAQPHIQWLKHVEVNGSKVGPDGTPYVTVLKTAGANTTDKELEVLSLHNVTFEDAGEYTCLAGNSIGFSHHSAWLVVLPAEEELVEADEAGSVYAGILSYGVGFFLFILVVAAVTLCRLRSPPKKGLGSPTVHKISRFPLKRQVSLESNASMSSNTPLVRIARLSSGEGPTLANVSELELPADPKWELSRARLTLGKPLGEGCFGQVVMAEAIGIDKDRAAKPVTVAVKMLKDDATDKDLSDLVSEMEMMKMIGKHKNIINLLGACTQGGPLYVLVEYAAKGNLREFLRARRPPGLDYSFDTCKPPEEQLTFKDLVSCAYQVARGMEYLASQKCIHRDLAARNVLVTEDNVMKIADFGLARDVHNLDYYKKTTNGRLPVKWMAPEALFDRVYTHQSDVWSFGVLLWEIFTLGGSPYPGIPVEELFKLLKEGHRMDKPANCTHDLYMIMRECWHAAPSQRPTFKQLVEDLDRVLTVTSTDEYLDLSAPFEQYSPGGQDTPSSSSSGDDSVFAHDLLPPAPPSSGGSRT
How it was run: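 Ba/F3-TEL-FGFR3 cells (5000/well) in RPMI 1640 with 10% FBS, exposed to twelve-point 1:3 compound dilutions for 48 h. Proliferation read by AlamarBlue (10% final, 4 h at 37 °C), fluorescence Ex530/Em580; IC50 from linear regression of percent inhibition.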

`COc1cc(OC)c(F)c(Nc2ncncc2-c2cc(Nc3ccc(C(C)O)cn3)ncn2)c1F` (stereo not shown) [Compound 80, 1-{6-[4′-(2,6-Difluoro-3,5-dimethoxy-phenylamino)-[4,5′]bipyrimidinyl-6-ylamino]-pyridin-3-yl}-ethanol] and `COc1cc(OC)c(Cl)c(Nc2ncncc2-c2cc(Nc3ccc(C(C)O)cn3)ncn2)c1C` (stereo not shown) [Compound 81, 1-{6-[4′-(2-Chloro-3,5-dimethoxy-6-methyl-phenylamino)-[4,5′]bipyrimidinyl-6-ylamino]-pyridin-3-yl}-ethanol] cannot be ordered by GI50: under 100 nM for the first, under 100 nM for the second.

`COc1cc(OC)c(Cl)c(Nc2ncncc2-c2cc(Nc3ccc(C(C)O)cn3)ncn2)c1Cl` (stereo not shown) [Compound 82, 1-{6-[4′-(2,6-Dichloro-3,5-dimethoxy-phenylamino)-[4,5′]bipyrimidinyl-6-ylamino]-pyridin-3-yl}-ethanol] and `COc1cc(Nc2ncncc2-c2cc(Nc3ccc(C(C)O)cn3)ncn2)c(F)c(OC)c1` (stereo not shown) [Compound 83, 1-{6-[4′-(2-Fluoro-3,5-dimethoxy-phenylamino)-[4,5′]bipyrimidinyl-6-ylamino]-pyridin-3-yl}-ethanol] cannot be ordered by GI50: under 100 nM for the first, under 100 nM for the second.

`COc1cc(Nc2ncncc2-c2cc(Nc3ccc(CCN4CCOCC4)cn3)ncn2)c(F)c(OC)c1` [Compound 84, N4′-(2-Fluoro-3,5-dimethoxy-phenyl)-N6-[5-(2-morpholin-4-yl-ethyl)-pyridin-2-yl]-[4,5′]bipyrimidinyl-6,4′-diamine] and `COc1cc(OC)c(F)c(Nc2ncncc2-c2cc(Nc3ccc(CCN4CCOCC4)cn3)ncn2)c1F` [Compound 85, N4′-(2,6-Difluoro-3,5-dimethoxy-phenyl)-N6-[5-(2-morpholin-4-yl-ethyl)-pyridin-2-yl]-[4,5′]bipyrimidinyl-6,4′-diamine] cannot be ordered by GI50: under 100 nM for the first, under 100 nM for the second.

First: COc1cc(OC)c(Cl)c(Nc2ncncc2-c2cc(Nc3ccc(CCN4CCOCC4)cn3)ncn2)c1C [Compound 86, N4′-(2-Chloro-3,5-dimethoxy-6-methyl-phenyl)-N6-[5-(2-morpholin-4-yl-ethyl)-pyridin-2-yl]-[4,5′]bipyrimidinyl-6,4′-diamine]
Second: COc1cc(OC)c(Cl)c(Nc2nc(C)ncc2-c2cc(Nc3ccc(CN4CCOCC4)cn3)ncn2)c1F [Compound 91, N4′-(2-Chloro-6-fluoro-3,5-dimethoxy-phenyl)-2′-methyl-N6-(5-morpholin-4-ylmethyl-pyridin-2-yl)-[4,5′]bipyrimidinyl-6,4′-diamine]
The GI50 of the first is higher: 250 to 500 nM for the first, under 100 nM for the second.

`COc1cc(OC)c(Cl)c(Nc2ncncc2-c2cc(Nc3ccc(CN4CCN(C(=O)CO)CC4)cn3)ncn2)c1Cl` [Compound 87, 1-(4-{6-[4′-(2,6-Dichloro-3,5-dimethoxy-phenylamino)-[4,5′]bipyrimidinyl-6-ylamino]-pyridin-3-ylmethyl}-piperazin-1-yl)-2-hydroxy-ethanone] and `COc1cc(OC)c(Cl)c(Nc2ncncc2-c2cc(Nc3ccc(CN4CCN(C(=O)CO)CC4)cn3)ncn2)c1F` [Compound 88, 1-(4-{6-[4′-(2-Chloro-6-fluoro-3,5-dimethoxy-phenylamino)-[4,5′]bipyrimidinyl-6-ylamino]-pyridin-3-ylmethyl}-piperazin-1-yl)-2-hydroxy-ethanone] cannot be ordered by GI50: under 100 nM for the first, under 100 nM for the second.

`COc1cc(OC)c(F)c(Nc2ncncc2-c2cc(Nc3ccc(CN4CCN(C(=O)CO)CC4)cn3)ncn2)c1F` [Compound 89] and `COc1cc(Nc2ncncc2-c2cc(Nc3ccc(CN4CCN(C(=O)CO)CC4)cn3)ncn2)c(F)c(OC)c1` [Compound 90] cannot be ordered by GI50: under 100 nM for the first, under 100 nM for the second.

For `COc1cc(C(=O)Nc2cccc(C(F)(F)F)c2)c(Cl)c(Nc2ncncc2-c2cc(Nc3ccc(CN4CCOCC4)cn3)ncn2)c1Cl` [Compound 92, 2,4-dichloro-5-methoxy-3-(6-(5-(morpholinomethyl)pyridin-2-ylamino)-4,5′-bipyrimidin-4′-ylamino)-N-(3-(trifluoromethyl)phenyl)benzamide], the GI50 was under 100 nM.
